Assay: molar heat capacity at constant pressure
Settings: Liquid

CC(C)CCCCCCCOC(=O)c1ccccc1C(=O)OCCCCCCCC(C)C
molar heat capacity at constant pressure [J/K/mol]
Settings	Flow calorimetry	Numerical integration with Cp at 1 atm and U at elevated pressures
293.15 K, 100 kPa	754.86	755.75
293.15 K, 10000 kPa	–	754.86
293.15 K, 20000 kPa	–	753.52
293.15 K, 30000 kPa	–	753.07
293.15 K, 40000 kPa	–	752.18
293.15 K, 50000 kPa	–	751.73
293.15 K, 60000 kPa	–	751.29
293.15 K, 70000 kPa	–	750.84
293.15 K, 80000 kPa	–	750.84
293.15 K, 90000 kPa	–	750.39
293.15 K, 100000 kPa	–	750.39
293.15 K, 110000 kPa	–	749.95
293.15 K, 120000 kPa	–	749.95
293.15 K, 130000 kPa	–	749.95
293.15 K, 140000 kPa	–	749.95
303.15 K, 100 kPa	–	771.39
303.15 K, 10000 kPa	–	770.05
303.15 K, 20000 kPa	–	768.71
303.15 K, 30000 kPa	–	767.81
303.15 K, 40000 kPa	–	767.37
303.15 K, 50000 kPa	–	766.92
303.15 K, 60000 kPa	–	766.47
303.15 K, 70000 kPa	–	766.03
303.15 K, 80000 kPa	–	765.58
303.15 K, 90000 kPa	–	765.58
303.15 K, 100000 kPa	–	765.13
303.15 K, 110000 kPa	–	765.13
303.15 K, 120000 kPa	–	765.13
303.15 K, 130000 kPa	–	765.13
303.15 K, 140000 kPa	–	765.13
313.15 K, 100 kPa	788.81	786.57
313.15 K, 10000 kPa	–	785.23
313.15 K, 20000 kPa	–	784.34
313.15 K, 30000 kPa	–	783.45
313.15 K, 40000 kPa	–	782.55
313.15 K, 50000 kPa	–	782.11
313.15 K, 60000 kPa	–	781.66
313.15 K, 70000 kPa	–	781.21
313.15 K, 80000 kPa	–	781.21
313.15 K, 90000 kPa	–	780.77
313.15 K, 100000 kPa	–	780.77
313.15 K, 110000 kPa	–	780.77
313.15 K, 120000 kPa	–	780.77
313.15 K, 130000 kPa	–	780.32
313.15 K, 140000 kPa	–	780.32
323.15 K, 100 kPa	–	802.65
323.15 K, 10000 kPa	–	801.31
323.15 K, 20000 kPa	–	799.97
323.15 K, 30000 kPa	–	799.08
323.15 K, 40000 kPa	–	798.63
323.15 K, 50000 kPa	–	797.74
323.15 K, 60000 kPa	–	797.29
323.15 K, 70000 kPa	–	797.29
323.15 K, 80000 kPa	–	796.85
323.15 K, 90000 kPa	–	796.4
323.15 K, 100000 kPa	–	796.4
323.15 K, 110000 kPa	–	796.4
323.15 K, 120000 kPa	–	796.4
323.15 K, 130000 kPa	–	796.4
323.15 K, 140000 kPa	–	796.4
333.15 K, 100 kPa	816.5	818.73
333.15 K, 10000 kPa	–	817.39
333.15 K, 20000 kPa	–	816.05
333.15 K, 30000 kPa	–	815.16
333.15 K, 40000 kPa	–	814.27
333.15 K, 50000 kPa	–	813.82
333.15 K, 60000 kPa	–	813.37
333.15 K, 70000 kPa	–	812.93
333.15 K, 80000 kPa	–	812.93
333.15 K, 90000 kPa	–	812.48
333.15 K, 100000 kPa	–	812.48
333.15 K, 110000 kPa	–	812.48
333.15 K, 120000 kPa	–	812.48
333.15 K, 130000 kPa	–	812.48
333.15 K, 140000 kPa	–	812.48
343.15 K, 100 kPa	–	835.26
343.15 K, 10000 kPa	–	833.92
343.15 K, 20000 kPa	–	832.58
343.15 K, 30000 kPa	–	831.69
343.15 K, 40000 kPa	–	830.79
343.15 K, 50000 kPa	–	830.35
343.15 K, 60000 kPa	–	829.9
343.15 K, 70000 kPa	–	829.45
343.15 K, 80000 kPa	–	829.01
343.15 K, 90000 kPa	–	829.01
343.15 K, 100000 kPa	–	829.01
343.15 K, 110000 kPa	–	829.01
343.15 K, 120000 kPa	–	829.01
343.15 K, 130000 kPa	–	828.56
343.15 K, 140000 kPa	–	829.01
353.15 K, 100 kPa	852.23	852.23
353.15 K, 10000 kPa	–	850.45
353.15 K, 20000 kPa	–	849.11
353.15 K, 30000 kPa	–	848.21
353.15 K, 40000 kPa	–	847.32
353.15 K, 50000 kPa	–	846.87
353.15 K, 60000 kPa	–	846.43
353.15 K, 70000 kPa	–	845.98
353.15 K, 80000 kPa	–	845.98
353.15 K, 90000 kPa	–	845.53
353.15 K, 100000 kPa	–	845.53
353.15 K, 110000 kPa	–	845.53
353.15 K, 120000 kPa	–	845.53
353.15 K, 130000 kPa	–	845.53
353.15 K, 140000 kPa	–	845.53
363.15 K, 100 kPa	–	869.21
363.15 K, 10000 kPa	–	867.42
363.15 K, 20000 kPa	–	866.08
363.15 K, 30000 kPa	–	865.19
363.15 K, 40000 kPa	–	864.29
363.15 K, 50000 kPa	–	863.85
363.15 K, 60000 kPa	–	863.4
363.15 K, 70000 kPa	–	862.95
363.15 K, 80000 kPa	–	862.95
363.15 K, 90000 kPa	–	862.95
363.15 K, 100000 kPa	–	862.51
363.15 K, 110000 kPa	–	862.51
363.15 K, 120000 kPa	–	862.51
363.15 K, 130000 kPa	–	862.51
363.15 K, 140000 kPa	–	862.51
373.15 K, 100 kPa	893.77	886.62
373.15 K, 10000 kPa	–	884.84
373.15 K, 20000 kPa	–	883.5
373.15 K, 30000 kPa	–	882.6
373.15 K, 40000 kPa	–	881.71
373.15 K, 50000 kPa	–	881.26
373.15 K, 60000 kPa	–	880.82
373.15 K, 70000 kPa	–	880.37
373.15 K, 80000 kPa	–	880.37
373.15 K, 90000 kPa	–	879.93
373.15 K, 100000 kPa	–	879.93
373.15 K, 110000 kPa	–	879.93
373.15 K, 120000 kPa	–	879.93
373.15 K, 130000 kPa	–	879.93
373.15 K, 140000 kPa	–	879.93
383.15 K, 100 kPa	–	904.49
383.15 K, 10000 kPa	–	902.7
383.15 K, 20000 kPa	–	901.36
383.15 K, 30000 kPa	–	900.02
383.15 K, 40000 kPa	–	899.58
383.15 K, 50000 kPa	–	898.68
383.15 K, 60000 kPa	–	898.24
383.15 K, 70000 kPa	–	898.24
383.15 K, 80000 kPa	–	897.79
383.15 K, 90000 kPa	–	897.79
383.15 K, 100000 kPa	–	897.79
383.15 K, 110000 kPa	–	897.79
383.15 K, 120000 kPa	–	897.79
383.15 K, 130000 kPa	–	897.79
383.15 K, 140000 kPa	–	897.79
393.15 K, 100 kPa	914.32	922.8
393.15 K, 10000 kPa	–	920.57
393.15 K, 20000 kPa	–	919.23
393.15 K, 30000 kPa	–	918.34
393.15 K, 40000 kPa	–	917.44
393.15 K, 50000 kPa	–	917
393.15 K, 60000 kPa	–	916.55
393.15 K, 70000 kPa	–	916.1
393.15 K, 80000 kPa	–	916.1
393.15 K, 90000 kPa	–	915.66
393.15 K, 100000 kPa	–	915.66
393.15 K, 110000 kPa	–	915.66
393.15 K, 120000 kPa	–	915.66
393.15 K, 130000 kPa	–	915.66
393.15 K, 140000 kPa	–	916.1
403.15 K, 100 kPa	–	941.12
403.15 K, 10000 kPa	–	938.88
403.15 K, 20000 kPa	–	937.54
403.15 K, 30000 kPa	–	936.65
403.15 K, 40000 kPa	–	935.76
403.15 K, 50000 kPa	–	934.86
403.15 K, 60000 kPa	–	934.86
403.15 K, 70000 kPa	–	934.42
403.15 K, 80000 kPa	–	934.42
403.15 K, 90000 kPa	–	933.97
403.15 K, 100000 kPa	–	933.97
403.15 K, 110000 kPa	–	933.97
403.15 K, 120000 kPa	–	933.97
403.15 K, 130000 kPa	–	934.42
403.15 K, 140000 kPa	–	934.42
413.15 K, 100 kPa	–	959.88
413.15 K, 10000 kPa	–	957.64
413.15 K, 20000 kPa	–	956.3
413.15 K, 30000 kPa	–	954.96
413.15 K, 40000 kPa	–	954.07
413.15 K, 50000 kPa	–	953.62
413.15 K, 60000 kPa	–	953.18
413.15 K, 70000 kPa	–	953.18
413.15 K, 80000 kPa	–	952.73
413.15 K, 90000 kPa	–	952.73
413.15 K, 100000 kPa	–	952.73
413.15 K, 110000 kPa	–	952.73
413.15 K, 120000 kPa	–	952.73
413.15 K, 130000 kPa	–	953.18
413.15 K, 140000 kPa	–	953.18
423.15 K, 100 kPa	981.32	–

Reference: the NIST ThermoML archive (doi:10.1016/j.jct.2009.12.002)
